From US11053281B2, “Peptoid affinity ligands” (MIKE-ANN, LLC, priority 2016, dated 2021) come the findings set out here.

Read-outs that look alike come from different tables or passages of the source. *1 amine or outer side, *2 acyl side, *3 side chain or, on linkers, in order; H or OH if unused. Where a SMILES comes first, the peptide text is derived from it. [ ]: non-standard residue; d: D form. Gly(N(CH2)2(3-indolyl)) = O=C(O)CNCCc1c[nH]c2ccccc12; N(2-mercaptoethyl)Gly = O=C(CN(CCS[*:3])[*:1])[*:2]; N(4-hydroxyphenethyl)Gly = O=C(O)CNCCc1ccc(O)cc1; Gly(N-(CH2)3-guanidino) = N=C(N)NCCCNCC(=O)O; NGly(CH2(3-pyridyl)) = O=C(O)CNCc1cccnc1; N(CH2CH2COOH)Gly = O=C(O)CCNCC(=O)O; Gly(N(CH2)3NH2) = NCCCNCC(=O)O; Cysteamide = C(CS[*:3])N[*:1]; X1 = CSCCN(CC(=O)[*:2])[*:1]; Nphe = O=C(O)CNCc1ccccc1; NPrGly = CCCNCC(=O)O; Nme = COCCNCC(=O)O; Sar = CNCC(=O)O

The experiment concerns polyclonal human IgG. Kind of experiment: Adsorption isotherm of peptoid affinity resins against polyclonal human IgG. The note with it: for Qmax: maximum capacity (qmax) of resin from isotherm fit; for Kd: peptoid ligand conjugated to chromatographic resin, IgG in PBS, hyperbola fit of isotherm, Kd given in molar, read-out: Kd x 10^−6. Set-up: Qmax: unit not given here. The experiment is classed as binding. The procedure: The affinity for the peptoid-resin combinations was determined by measuring the adsorption isotherm of each resin against polyclonal human IgG (Pakimna et al., J Applied Sci., 12(11): 1136-1141, 2012). Briefly, 0.050 mL of 50% resin slurry was pipetted into 6 individual wells of a 96-well filter plate (0.45 micron, PVDF, Harvard Apparatus). The resin was washed with 2×250 μL PBS using a vacuum manifold. To an individual well, 0.25 mL of a human polyclonal IgG solution at different concentrations (10, 5, 2.5, 1.25, 0.625, and 0.3125 mg/mL) was added. The resin/IgG suspension was agitated gently on a rocking table for 30 minutes. The fluid was then collected via vacuum, and the resin was washed with 0.25 mL of PBS. The filtrate and wash were then analyzed by the BCA assay to determine the residual IgG concentration relative to the starting concentration of the solution.
The equilibrium concentrations were then used to determine the capacity of the resin at each IgG concentration using the following formula: q=Volumesample×(Initial Concentration−Equilibrium Concentration)/Volumeresin
A plot of q versus equilibrium concentration was generated and the data fit with a hyperbola to determine the affinity constant (Kd) and the maximum capacity (qmax) according to the below formula, where C=the equilibrium concentration of antibody in solution: q=qmax×C/(kd+C) Typical adsorption isotherm is shown in FIG. 2. Tabulated Kd and qmax data is found in Table 2.

Consider `CCCNCC(=O)N(CCc1c[nH]c2ccccc12)CC(=O)NCC(=O)N(CCCNC(=N)N)CC(=O)N(CCc1c[nH]c2ccccc12)CC(=O)N(CC(=O)NCCS)Cc1cccnc1` [Ligand 12-65-9], for which, for the setting “Table 2”, the Qmax turned out to be 76 and the Kd stood at 9.3 µM.

As to `COCCNCC(=O)N(CCc1c[nH]c2ccccc12)CC(=O)N(CCc1c[nH]c2ccccc12)CC(=O)N(CCCN)CC(=O)N(CC(=O)N(CCC(=O)O)CC(=O)N(C)CC(=O)NCCS)Cc1cccnc1` [Ligand 12-73-2] (H-[Nme][Gly(N(CH2)2(3-indolyl))][Gly(N(CH2)2(3-indolyl))][Gly(N(CH2)3NH2)][NGly(CH2(3-pyridyl))][N(CH2CH2COOH)Gly][Sar]-Cysteamide), for the setting “Table 2”, the Qmax is given as 74 and the Kd is 2.7 µM.

In the case of `CCCN(CC(=O)N(CCc1c[nH]c2ccccc12)CC(=O)NCCS)C(=O)CN(CCc1c[nH]c2ccccc12)C(=O)CN(C)C(=O)CN(CCc1c[nH]c2ccccc12)C(=O)CN(Cc1cccnc1)C(=O)CNCCCN` [Ligand 12-73-4] (H-[Gly(N(CH2)3NH2)][NGly(CH2(3-pyridyl))][Gly(N(CH2)2(3-indolyl))][Sar][Gly(N(CH2)2(3-indolyl))][NPrGly][Gly(N(CH2)2(3-indolyl))]-Cysteamide), where the note is “Table 2”, the Qmax stood at 72 and the Kd worked out at 3.9 µM.

Regarding `CCCN(CC(=O)N(C)CC(=O)N(CCc1c[nH]c2ccccc12)CC(=O)N(CCC)CC(=O)N(CCc1c[nH]c2ccccc12)CC(=O)NCCS)C(=O)CN(CCCNC(=N)N)C(=O)CNCCc1c[nH]c2ccccc12` [Ligand 12-76-3] (H-[Gly(N(CH2)2(3-indolyl))][Gly(N-(CH2)3-guanidino)][NPrGly][Sar][Gly(N(CH2)2(3-indolyl))][NPrGly][Gly(N(CH2)2(3-indolyl))]-Cysteamide), where the note is “Table 3”, the Qmax was found to be 87 and the dissociation constant Kd was determined as 3.2 µM.

In the case of `CCCN(CC(=O)N(CCc1c[nH]c2ccccc12)CC(=O)NCCS)C(=O)CN(CCc1c[nH]c2ccccc12)C(=O)CN(C)C(=O)CN(CCc1c[nH]c2ccccc12)C(=O)CN(Cc1cccnc1)C(=O)CNCCCNC(=N)N` [Ligand 12-76-4] (H-[Gly(N-(CH2)3-guanidino)][NGly(CH2(3-pyridyl))][Gly(N(CH2)2(3-indolyl))][Sar][Gly(N(CH2)2(3-indolyl))][NPrGly][Gly(N(CH2)2(3-indolyl))]-Cysteamide), for the setting “Table 2”, the Qmax is 89 and the Kd stood at 5.7 µM.

Turning to `CCCNCC(=O)N(CC(=O)N(CC(=O)N(C)CC(=O)N(CCc1c[nH]c2ccccc12)CC(=O)N(CCC)CC(=O)N(CCc1c[nH]c2ccccc12)CC(=O)NCCS)Cc1ccccc1)Cc1cccnc1` [Ligand 12-79-4] (H-[NPrGly][NGly(CH2(3-pyridyl))][Nphe][Sar][Gly(N(CH2)2(3-indolyl))][NPrGly][Gly(N(CH2)2(3-indolyl))]-Cysteamide), where the note is “Table 3”, the Qmax is 69 and the dissociation constant Kd is 3.6 µM.

As to `CCCN(CC(=O)N(CCc1c[nH]c2ccccc12)CC(=O)NCCS)C(=O)CN(CCc1c[nH]c2ccccc12)C(=O)CN(C)C(=O)CN(CCCNC(=N)N)C(=O)CN(CCOC)C(=O)CNCc1cccnc1` [Ligand 15-28-5] (H-[NGly(CH2(3-pyridyl))][Nme][Gly(N-(CH2)3-guanidino)][Sar][Gly(N(CH2)2(3-indolyl))][NPrGly][Gly(N(CH2)2(3-indolyl))]-Cysteamide), where the note is “Table 3”, the Qmax is 61 and the Kd was found to be 6.1 µM.

For `CCCN(CC(=O)N(CCc1c[nH]c2ccccc12)CC(=O)NCCS)C(=O)CN(CCc1c[nH]c2ccccc12)C(=O)CN(C)C(=O)CN(Cc1cccnc1)C(=O)CN(CCOC)C(=O)CNCc1cccnc1` [Ligand 15-91-1] (H-[NGly(CH2(3-pyridyl))][Nme][NGly(CH2(3-pyridyl))][Sar][Gly(N(CH2)2(3-indolyl))][NPrGly][Gly(N(CH2)2(3-indolyl))]-Cysteamide), under “Table 3”, the Qmax amounted to 80 and the Kd amounted to 66 µM.

As to `CCCN(CC(=O)N(CCc1c[nH]c2ccccc12)CC(=O)NCCS)C(=O)CN(CCc1c[nH]c2ccccc12)C(=O)CN(C)C(=O)CN(CCC(=O)O)C(=O)CN(Cc1cccnc1)C(=O)CNCCCN` [Ligand 15-91-4] (H-[Gly(N(CH2)3NH2)][NGly(CH2(3-pyridyl))][N(CH2CH2COOH)Gly][Sar][Gly(N(CH2)2(3-indolyl))][NPrGly][Gly(N(CH2)2(3-indolyl))]-Cysteamide), under “Table 3”, the Qmax was 32 and the Kd was 6 µM.

`CCCN(CC(=O)N(CCc1c[nH]c2ccccc12)CC(=O)NCCS)C(=O)CN(CCc1c[nH]c2ccccc12)C(=O)CN(C)C(=O)CN(Cc1cccnc1)C(=O)CN(CCSC)C(=O)CNCc1cccnc1` [Ligand 16-64-2] (H-[NGly(CH2(3-pyridyl))][N(2-mercaptoethyl)Gly](Me)[NGly(CH2(3-pyridyl))][Sar][Gly(N(CH2)2(3-indolyl))][NPrGly][Gly(N(CH2)2(3-indolyl))]-Cysteamide): for the setting “Table 3”, the Qmax came to 49 and the Kd was 5.5 µM.

With `CSCCN(CC(=O)N(CCCN)CC(=O)N(CC(=O)N(CCC(=O)O)CC(=O)N(C)CC(=O)NCCS)Cc1cccnc1)C(=O)CN(Cc1ccccc1)C(=O)CNCc1cccnc1` [Ligand 16-64-4] (H-[NGly(CH2(3-pyridyl))][Nphe][X1][Gly(N(CH2)3NH2)][NGly(CH2(3-pyridyl))][N(CH2CH2COOH)Gly][Sar]-Cysteamide), where the note is “Table 3”, the Qmax was 33 and the Kd worked out at 28 µM.

In the case of `CCCN(CC(=O)N(CCCN)CC(=O)N(CC(=O)N(CCC(=O)O)CC(=O)N(C)CC(=O)NCCS)Cc1cccnc1)C(=O)CN(CCC(=O)O)C(=O)CNCc1cccnc1` [Ligand 16-75-1] (H-[NGly(CH2(3-pyridyl))][N(CH2CH2COOH)Gly][NPrGly][Gly(N(CH2)3NH2)][NGly(CH2(3-pyridyl))][N(CH2CH2COOH)Gly][Sar]-Cysteamide), where the note is “Table 3”, the Qmax is on record as 33 and the Kd amounted to 18 µM.

As to `NC(=O)NCCCN(CC(=O)N(CCc1c[nH]c2ccccc12)CC(=O)N(CC(=O)NCCS)Cc1cccnc1)C(=O)CNCCc1c[nH]c2ccccc12` [Ligand 16-75-5], where the note is “Table 2”, the Qmax was 44 and the Kd stood at 4.3 µM.

For the molecule `NC(=O)NCCCN(CC(=O)N(CCc1c[nH]c2ccccc12)CC(=O)NCCS)C(=O)CN(CCc1c[nH]c2ccccc12)C(=O)CNCc1cccnc1` [Ligand 16-77-1], where the note is “Table 2”, the Qmax was determined as 61 and the Kd was 3.6 µM.

Consider `COCCN(CC(=O)NCCS)C(=O)CN(CCc1c[nH]c2ccccc12)C(=O)CN(CCc1c[nH]c2ccccc12)C(=O)CNCCCN` [Ligand 16-77-3] (H-[Gly(N(CH2)3NH2)][Gly(N(CH2)2(3-indolyl))][Gly(N(CH2)2(3-indolyl))][Nme]-Cysteamide), for which, for the setting “Table 2”, the Qmax was found to be 47 and the Kd turned out to be 4 µM.

On to `COCCNCC(=O)N(CCc1c[nH]c2ccccc12)CC(=O)N(CCc1c[nH]c2ccccc12)CC(=O)N(CCCN)CC(=O)NCCS` [Ligand 16-77-4] (H-[Nme][Gly(N(CH2)2(3-indolyl))][Gly(N(CH2)2(3-indolyl))][Gly(N(CH2)3NH2)]-Cysteamide), for which, under “Table 2”, the Qmax was determined as 44 and the equilibrium dissociation constant (Kd) was 4.3 µM.

Take `COCCN(CC(=O)N(CCCN)CC(=O)N(CCc1c[nH]c2ccccc12)CC(=O)NCCS)C(=O)CNCc1cccnc1` [Ligand 16-81-6] (H-[NGly(CH2(3-pyridyl))][Nme][Gly(N(CH2)3NH2)][Gly(N(CH2)2(3-indolyl))]-Cysteamide): where the note is “Table 3”, the Qmax was found to be 45 and the Kd is 3.6 µM.

With `COCCN(CC(=O)N(CC(=O)NCCS)Cc1cccnc1)C(=O)CN(CCCN)C(=O)CNCCc1c[nH]c2ccccc12` [Ligand 16-81-7] (H-[Gly(N(CH2)2(3-indolyl))][Gly(N(CH2)3NH2)][Nme][NGly(CH2(3-pyridyl))]-Cysteamide), for the setting “Table 3”, the Qmax came out at 39 and the Kd was 4.8 µM.

On to `O=C(CN(CCc1c[nH]c2ccccc12)C(=O)CN(Cc1cccnc1)C(=O)CN(CCc1c[nH]c2ccccc12)C(=O)CNCc1cccnc1)NCCS` [Ligand 16-82-2], for which, where the note is “Table 3”, the Qmax is listed as 41 and the Kd came out at 2.5 µM.

Turning to `NCCCNCC(=O)N(CC(=O)N(CCc1c[nH]c2ccccc12)CC(=O)N(CCc1c[nH]c2ccccc12)CC(=O)NCCS)Cc1cccnc1` [Ligand 16-82-3] (H-[Gly(N(CH2)3NH2)][NGly(CH2(3-pyridyl))][Gly(N(CH2)2(3-indolyl))][Gly(N(CH2)2(3-indolyl))]-Cysteamide), for the setting “Table 2”, the Qmax is recorded as 47 and the Kd stood at 2.5 µM.

On to `CN(CC(=O)NCCS)C(=O)CN(CCC(=O)O)C(=O)CN(Cc1cccnc1)C(=O)CN(CCCNC(=N)N)C(=O)CN(CCCNC(=N)N)C(=O)CN(CCc1ccc(O)cc1)C(=O)CNCCc1ccc(O)cc1` [Ligand 18-28-1] (H-[N(4-hydroxyphenethyl)Gly][N(4-hydroxyphenethyl)Gly][Gly(N-(CH2)3-guanidino)][Gly(N-(CH2)3-guanidino)][NGly(CH2(3-pyridyl))][N(CH2CH2COOH)Gly][Sar]-Cysteamide), for which, for the setting “Table 2”, the Qmax is reported as 41 and the Kd came out at 7.7 µM.
